{"source": "patent US10100056B2", "about": "“SHIP1 modulators and methods related thereto” (Aquinox Pharmaceuticals (Canada) Inc., priority 2013, dated 2018)", "note": "Marks after values point to notes of the source that are not given here."}
{"biological_target": "T1, His-hSHIP1 enzyme (Homo sapiens, UniProt Q92835)", "T1 construct": "His", "T1 sequence (Q92835 1-1189)": "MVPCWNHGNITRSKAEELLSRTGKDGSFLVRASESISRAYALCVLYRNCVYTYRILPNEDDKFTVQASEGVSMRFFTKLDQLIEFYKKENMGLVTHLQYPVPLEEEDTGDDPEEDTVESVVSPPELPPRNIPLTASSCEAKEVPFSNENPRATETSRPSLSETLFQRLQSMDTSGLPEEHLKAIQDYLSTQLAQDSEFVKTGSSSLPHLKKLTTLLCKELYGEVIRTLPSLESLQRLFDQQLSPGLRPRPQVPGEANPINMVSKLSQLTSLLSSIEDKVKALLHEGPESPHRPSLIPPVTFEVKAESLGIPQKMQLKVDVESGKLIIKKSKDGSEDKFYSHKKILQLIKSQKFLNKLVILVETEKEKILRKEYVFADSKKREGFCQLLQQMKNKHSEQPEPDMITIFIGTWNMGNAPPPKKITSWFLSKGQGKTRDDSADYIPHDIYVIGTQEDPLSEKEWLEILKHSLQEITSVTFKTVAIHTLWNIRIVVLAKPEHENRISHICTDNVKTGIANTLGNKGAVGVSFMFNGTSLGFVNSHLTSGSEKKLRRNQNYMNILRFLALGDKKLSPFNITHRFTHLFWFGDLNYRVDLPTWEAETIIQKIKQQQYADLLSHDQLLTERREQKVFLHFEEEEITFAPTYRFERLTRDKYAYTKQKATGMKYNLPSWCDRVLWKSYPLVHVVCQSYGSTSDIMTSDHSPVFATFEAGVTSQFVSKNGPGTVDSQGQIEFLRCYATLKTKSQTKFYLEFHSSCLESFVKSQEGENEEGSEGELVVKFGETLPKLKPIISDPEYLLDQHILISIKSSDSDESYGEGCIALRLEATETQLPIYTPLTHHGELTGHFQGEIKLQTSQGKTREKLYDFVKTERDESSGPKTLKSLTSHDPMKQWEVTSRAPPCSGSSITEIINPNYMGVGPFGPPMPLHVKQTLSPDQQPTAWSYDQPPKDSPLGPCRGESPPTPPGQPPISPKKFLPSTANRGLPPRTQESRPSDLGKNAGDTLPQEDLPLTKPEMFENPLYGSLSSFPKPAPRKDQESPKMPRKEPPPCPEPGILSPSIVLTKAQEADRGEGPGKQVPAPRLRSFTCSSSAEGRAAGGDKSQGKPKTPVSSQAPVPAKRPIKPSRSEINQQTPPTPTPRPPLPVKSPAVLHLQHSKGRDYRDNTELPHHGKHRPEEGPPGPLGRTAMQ", "experiment": "His-hSHIP1 activity (phosphatase assay, IP4 substrate, Biomol Green)", "type": "biochemical", "parameters": "key to Scoring, Approach 2 (Initial velocity Ratio): +++: higher than reference or reference - 15%; ++: reference - 16% to reference - 30%; +: reference - 31% or lower; −: inhibitor", "details": "first approach: IP4 50 μM, test compound 0-300 μM; values marked with asterisk", "procedure": "(§1) Test compounds are dissolved in 95% ethanol to form stock solutions. Before screening, the stock solutions are diluted with Phosphatase Assay Buffer (20 mM Tris-HCL, 10 mM MgCl2 pH 7.5, 0.02% Tween 20) to form working assay solutions that contain 10% ethanol. The assay is carried out on 96-well microtiter plates using a modified procedure of that reported by Ong et al., Blood 110, 1942-1949, 2007 and Yang et al., Org Lett 7, 1073-1076, 2005, both of which references are incorporated herein by reference in their entirety.\n(§2) Data were generated by one of two variant methods. Test compounds are screened by one of two approaches described as follows. In the first approach, each reaction contains 5 μL of His-hSHIP1 enzyme (5-20 ng), 10 μL of the substrate, 1,3,4,5-inositol tetrakisphosphate (IP4; 50 μM final), 5 μL of Phosphatase Assay Buffer, and 5 µL of test compound at various concentrations in 10% ethanol (0-300 μM final). Control blanks are also prepared by replacing His-hSHIP1 enzyme, IP4, or test compounds with Phosphatase Assay Buffer. After adding the reaction components in a 96-well microtiter plate on ice, the reaction is mixed by briefly shaking the plate vigorously. The reaction is then incubated at 37° C. for 15 min with gentle shaking followed by addition of 100 μL of Biomol Green Reagent (BIOMOL, PA, USA) to terminate the reaction. The free phosphate released from IP4 by His-hSHIP1 binds to the Biomol Green Reagent, which turns the dye to green color. After incubating the mixture for 20 min at room temperature for color development, the absorbance is read with SpectraMax Plus 96-well plate reader (Molecular Devices, Sunnyvale, Calif., USA) at a wavelength of 650 nm.\n(§3) In the second approach, a master mix is prepared that contains 50 μL of His-hSHIP1 enzyme (0.4-1.6 ng/μL final), 25 μL of the substrate, IP4 (25 or 250 μM final), and 50 μL of test compound in 3.3% ethanol (100 μL final). Control blanks are also prepared by replacing His-hSHIP1 enzyme, IP4, or test compounds with Phosphate Assay Buffer. […] Each reaction component is preincubated at 37° C. for 30 min before adding to a 96-well microtiter plate. The master mix is then incubated at 37° C. At time 0, 20, and 30 min, 25 μL of the master mix is removed and transferred to a new 96-well microtiter plate, to which 100 μL of Biomol Green Reagent is added to stop the reaction. After incubating the mixture for 20 min at room temperature for color development, the absorbance is read with SpectraMax Plus 96-well plate reader at a wavelength of 650 nm. Phosphate released is plotted against time to calculate the initial velocities (i.e., slope of the graph) at each IP4 concentration. The initial velocities are baseline corrected and the ratio of initial velocities (IP425/IP4250) is calculated and used to rate the test compounds."}
{"compound": "C=C1CC[C@H]2[C@H](CO)[C@@H]([C@@]3(C)CC[C@H](N)C[C@@H]3CO)CC[C@]12C", "note": "[Cpd. No. 63, ((1S,2R,5S)-5-amino-2-((3aS,4R,5S,7aS)-4-(hydroxymethyl)-7a-methyl-1-methyleneoctahydro-1H-inden-5-yl)-2-methylcyclohexyl)methanol]", "Scoring, Approach 1 (% increase relative to background)": "++* (50 ≤ x < 65)"}
{"biological_target": "T1, His-hSHIP1 enzyme", "experiment": "His-hSHIP1 activity (phosphatase assay, IP4 substrate, Biomol Green)", "type": "biochemical", "parameters": "key to Scoring, Approach 2 (Initial velocity Ratio): +++: higher than reference or reference - 15%; ++: reference - 16% to reference - 30%; +: reference - 31% or lower; −: inhibitor", "details": "second approach: ratio of initial velocities IP4 25/250 μM compared with reference compound; values without asterisk", "procedure": "as §1, §2, §3"}
{"compound": "C=C1CC[C@H]2[C@H](Cn3cccn3)[C@@H]([C@@]3(C)CC[C@H](O)C[C@@H]3CO)CC[C@]12C", "note": "[Cpd. No. 26, (1S,3S,4R)-4-((3aS,4R,5S,7aS)-4-((1H-pyrazol-1-yl)methyl)-7a-methyl-1-methyleneoctahydro-1H-inden-5-yl)-3-(hydroxymethyl)-4-methylcyclohexanol]", "Scoring, Approach 2 (Initial velocity Ratio)": "++"}
{"compound": "C=C1CC[C@H]2[C@H](CNCc3ccc4c(c3)OC(F)(F)O4)[C@@H]([C@@]3(C)CC[C@H](O)C[C@@H]3CO)CC[C@]12C", "note": "[Cpd. No. 37, (1S,3S,4R)-4-((3aS,4R,5S,7aS)-4-(((2,2-difluorobenzo[d][1,3]dioxol-5-yl)methylamino)methyl)-7a-methyl-1-methyleneoctahydro-1H-inden-5-yl)-3-(hydroxymethyl)-4-methylcyclohexanol]", "Scoring, Approach 2 (Initial velocity Ratio)": "++"}
{"compound": "C=C1CC[C@H]2[C@H](CCN(Cc3ccc(OC)cc3)Cc3ccc(OC)cc3)[C@@H]([C@@]3(C)CC[C@H](O)C[C@@H]3O)CC[C@]12C", "note": "[Cpd. No. 43, (1S,3S,4R)-4-((3aS,4S,5S,7aS)-4-(2-(bis(4-methoxybenzyl)amino)ethyl)-7a-methyl-1-methyleneoctahydro-1H-inden-5-yl)-4-methylcyclohexane-1,3-diol]", "Scoring, Approach 2 (Initial velocity Ratio)": "++"}
{"compound": "C=C1CC[C@H]2[C@H](CCNCc3ccc(OC)cc3)[C@@H]([C@@]3(C)CC[C@H](O)C[C@@H]3O)CC[C@]12C", "note": "[Cpd. No. 44, (1S,3S,4R)-4-((3aS,4S,5S,7aS)-4-(2-(4-methoxybenzylamino)ethyl)-7a-methyl-1-methyleneoctahydro-1H-inden-5-yl)-4-methylcyclohexane-1,3-diol]", "Scoring, Approach 2 (Initial velocity Ratio)": "++"}
{"compound": "C=C1CC[C@H]2[C@H](CCNCc3ccc4c(c3)OCO4)[C@@H]([C@@]3(C)CC[C@H](O)C[C@@H]3O)CC[C@]12C", "note": "[Cpd. No. 45, (1S,3S,4R)-4-((3aS,4S,5S,7aS)-4-(2-(benzo[d][1,3]dioxol-5-ylmethylamino)ethyl)-7a-methyl-1-methyleneoctahydro-1H-inden-5-yl)-4-methylcyclohexane-1,3-diol]", "Scoring, Approach 2 (Initial velocity Ratio)": "−"}
{"compound": "C=C1CC[C@H]2[C@H](CN)[C@@H]([C@@]3(C)CC[C@H](O)C[C@@H]3CN)CC[C@]12C", "note": "[Cpd. No. 47, (1S,3S,4R)-3-(aminomethyl)-4-((3aS,4R,5S,7aS)-4-(aminomethyl)-7a-methyl-1-methyleneoctahydro-1H-inden-5-yl)-4-methylcyclohexanol]", "Scoring, Approach 2 (Initial velocity Ratio)": "+"}
{"compound": "C=C1CC[C@H]2[C@H](O)[C@@H]([C@@]3(C)CC[C@H](O)C[C@@H]3CCn3cccc3)CC[C@]12C", "note": "[Cpd. No. 52, (3aR,4R,5R,7aS)-5-((1S,2S,4S)-2-(2-(1H-pyrrol-1-yl)ethyl)-4-hydroxy-1-methylcyclohexyl)-7a-methyl-1-methyleneoctahydro-1H-inden-4-ol]", "Scoring, Approach 2 (Initial velocity Ratio)": "−"}
{"compound": "C=C1CC[C@H]2[C@H](O)[C@@H]([C@@]3(C)CC[C@H](O)C[C@@H]3CCOc3cnccn3)CC[C@]12C", "note": "[Cpd. No. 56, (3aR,4R,5R,7aS)-5-((1S,2S,4S)-4-hydroxy-1-methyl-2-(2-(pyrazin-2-yloxy)ethyl)cyclohexyl)-7a-methyl-1-methyleneoctahydro-1H-inden-4-ol]", "Scoring, Approach 2 (Initial velocity Ratio)": "−"}
{"compound": "C=C1CC[C@H]2[C@H](COCc3ccccn3)[C@@H]([C@@]3(C)CC[C@H](O)C[C@@H]3CO)CC[C@]12C", "note": "[Cpd. No. 61, (1S,3S,4R)-3-(hydroxymethyl)-4-methyl-4-((3aS,4R,5S,7aS)-7a-methyl-1-methylene-4-((pyridin-2-ylmethoxy)methyl)octahydro-1H-inden-5-yl)cyclohexanol]", "Scoring, Approach 2 (Initial velocity Ratio)": "++"}
{"compound": "CC1(C)C=CC2=C1CC[C@H]([C@@]1(C)CC[C@H](O)C[C@@H]1CO)[C@H]2CO", "note": "[Cpd. No. 65, (1S,3S,4R)-3-(hydroxymethyl)-4-((4R,5S)-4-(hydroxymethyl)-1,1-dimethyl-4,5,6,7-tetrahydro-1H-inden-5-yl)-4-methylcyclohexanol]", "Scoring, Approach 2 (Initial velocity Ratio)": "++"}
{"compound": "CC1(C)C2=C(C[C@H]1O)[C@H](CO)[C@@H]([C@@]1(C)CC[C@H](O)C[C@@H]1CO)CC2", "note": "[Cpd. No. 66, (2R,4R,5S)-5-((1R,2S,4S)-4-hydroxy-2-(hydroxymethyl)-1-methylcyclohexyl)-4-(hydroxymethyl)-1,1-dimethyl-2,3,4,5,6,7-hexahydro-1H-inden-2-ol]", "Scoring, Approach 2 (Initial velocity Ratio)": "+"}
{"compound": "C=C1CC[C@H]2[C@H](COCc3ccccc3)[C@@H]([C@@]3(C)CC[C@H](O)C[C@@H]3CO)CC[C@]12C", "note": "[Cpd. No. 67, (1S,3S,4R)-4-((3aS,4R,5S,7aS)-4-(benzyloxymethyl)-7a-methyl-1-methyleneoctahydro-1H-inden-5-yl)-3-(hydroxymethyl)-4-methylcyclohexanol]", "Scoring, Approach 2 (Initial velocity Ratio)": "++"}
{"compound": "C=C1CC[C@H]2[C@H](CNC(=O)c3cccnc3)[C@@H]([C@@]3(C)CC[C@H](O)C[C@@H]3CO)CC[C@]12C", "note": "[Cpd. No. 69, N-(((3aS,4R,5S,7aS)-5-((1R,2S,4S)-4-hydroxy-2-(hydroxymethyl)-1-methylcyclohexyl)-7a-methyl-1-methyleneoctahydro-1H-inden-4-yl)methyl)nicotinamide]", "Scoring, Approach 2 (Initial velocity Ratio)": "+"}
{"compound": "C=C1CC[C@H]2[C@H](CNC(=O)NCc3ccccc3)[C@@H]([C@@]3(C)CC[C@H](O)C[C@@H]3CO)CC[C@]12C", "note": "[Cpd. No. 91, 1-benzyl-3-(((3aS,4R,5S,7aS)-5-((1R,2S,4S)-4-hydroxy-2-(hydroxymethyl)-1-methylcyclohexyl)-7a-methyl-1-methyleneoctahydro-1H-inden-4-yl)methyl)urea]", "Scoring, Approach 2 (Initial velocity Ratio)": "+"}
